Test results published in patent publication US11220483B2, “Tetrahydro-benzo[d]azepine derivatives as GPR120 modulators” (CALDAN THERAPEUTICS LIMITED, priority 2018, dated 2022).

The compounds below were run against T1, human GPR120 (Homo sapiens, UniProt Q5NUL3) (assay: Human GPR120-β Arrestin 2 BRET agonist assay). Settings: HEK293T cells transiently co-expressing hGPR120-eYFP and β-arrestin 2-RLuc; BRET normalised to DMSO (0%) and TUG-891 (100%); read-out: hGPR120 pEC50 (converted).
T1 construct: expressed in transfected cells; host or cells: HEK293T, transient transfection with PEI
T1 sequence (Q5NUL3 1-361): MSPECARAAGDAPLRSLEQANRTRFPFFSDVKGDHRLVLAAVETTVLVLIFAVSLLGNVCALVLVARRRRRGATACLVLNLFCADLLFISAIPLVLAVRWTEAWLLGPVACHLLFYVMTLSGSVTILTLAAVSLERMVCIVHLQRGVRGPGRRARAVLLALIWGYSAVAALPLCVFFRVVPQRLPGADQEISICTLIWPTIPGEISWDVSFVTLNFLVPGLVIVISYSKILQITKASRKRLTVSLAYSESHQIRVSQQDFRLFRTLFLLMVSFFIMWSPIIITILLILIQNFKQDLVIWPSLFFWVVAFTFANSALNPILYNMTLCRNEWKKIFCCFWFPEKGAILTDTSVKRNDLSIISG
Format: cell-based
Experimental: pEC50 data was obtained by the following procedure:
Human GPR120-β Arrestin 2 Bio-Luminescence Resonance Energy Transfer (BRET) Agonist Assay Procedure
HEK293T cells were cultured in growth media composed of DMEM L-glutamine media supplemented with 10% (v:v) fetal bovine serum (FBS) and 1% (v:v) 10,000 units penicillin/10 mgml^−1 streptomycin at 37° C., 5% CO2. HEK293T cells transiently co-expressing human GPR120 […] and b-arrestin 2 were generated by transfection with plasmids encoding a construct of hGPR120 […] fused at its C terminal with enhanced yellow fluorescent protein (eYFP), and another encoding β-arrestin 2 fused to Renilla luciferase (RLuc), using Polyethylenimine (PEI) as the transfection reagent.
Transfected cells were cryopreserved in batches for consistency between replicate assays. Twenty-four hours post transfection, cells were harvested with non-enzymatic cell dissociation buffer and re-suspended in DMEM medium supplemented with 10% DMSO and 10% FBS before being transferred first to −80° C. overnight and then to liquid nitrogen for long-term storage. On the day prior to the assay, cells were thawed at 37° C. and re-suspended in growth media. A 96 well white opaque bottom microtitre plate was then seeded with 40,000 cells in a volume of 100 μl growth media per well and seeded plates were then incubated overnight at 37° C., 5% CO2. On the day of the BRET experiment, cells were washed twice with BRET assay buffer (Hanks balanced salt solution (HBSS) supplemented with 10 mM HEPES (pH 7.4)), then 80 μl per well of BRET assay buffer was added before the plate was incubated for 30 minutes at 37° C., 5% CO2. Then, Renilla luciferase substrate coelenterazine h (5 μM) was added to the cells and incubated at 37° C. for 10 minutes before the addition of GPR120 agonist (TUG-891) or test compound for a further 5 minutes at 37° C.
Bio-luminescence at λ 535 nm and λ 475 nm was then measured with a Pherastar FsX instrument, and the λ 535/λ 475 ratio of bio-luminescence was then used to calculate a BRET value. hGPR120 agonist potency values (pEC50) were calculated by normalising the BRET values to the DMSO vehicle (0% control) and TUG-891 (100% control) and then fitting the normalised data to a 3-parameter concentration-response curve.

Q: With `O=C(O)CCc1ccc2c(c1)CCN(c1cccc(OC3CCC3)c1)C2` [Compound 12, 3-(2-(3-cyclobutoxyphenyl)-1,2,3,4-tetrahydroisoquinolin-6-yl)propanoic acid] as the compound, how does the EC50 read?
A: 158 nM

Q: With `O=C(O)C1CC1c1ccc2c(c1)CCN(c1cccc(Oc3ccccc3)c1)C2` (single isomer, unassigned) [38 isomer 2] as the compound, how does the EC50 read?
A: 39.8 nM

Q: For `CC(C)Oc1ccc(F)c(N2CCc3ccc(CCC(=O)O)cc3CC2)c1` [Compound 48, 3-(3-(2-fluoro-5-isopropoxyphenyl)-2,3,4,5-tetrahydro-1H-benzo[d]azepin-7-yl)propanoic acid], which EC50 is on record?
A: 200 nM

Q: Which EC50 does the source give for `O=C(O)CCc1cc2c(cc1F)CN(c1cc(OC3CCC3)ccc1F)CC2` [Compound 39, 3-(2-(5-cyclobutoxy-2-fluorophenyl)-7-fluoro-1,2,3,4-tetrahydroisoquinolin-6-yl)propanoic Acid] here?
A: 63.1 nM

Q: Which EC50 does the source give for `O=C(O)CCc1ccc2c(c1)CN(c1cc(OC(F)(F)F)ccc1F)CC2` [Compound 33] here?
A: 1260 nM

Q: `O=C(O)CCc1ccc2c(c1)CCN(c1cc(OC3CCC3)ccc1F)C2` [Compound 13, 3-(2-(5-cyclobutoxy-2-fluorophenyl)-1,2,3,4-tetrahydroisoquinolin-6-yl)propanoic acid] was tested. Which EC50 did it give?
A: 20 nM

Q: With `O=C(O)C1CC1c1ccc2c(c1)CCN(c1nc(OC3CCC3)ccc1F)C2` (single isomer, unassigned) [37 Isomer 1] as the compound, how does the EC50 read?
A: 63.1 nM

Q: `O=C(O)CCc1ccc2c(c1)CCN(c1cccc(Oc3ccccc3)c1)C2` [Compound 20, 3-(2-(3-phenoxyphenyl)-1,2,3,4-tetrahydroisoquinolin-6-yl)propanoic acid] was tested. Which EC50 did it give?
A: 25.1 nM

Q: For `O=C(O)CCc1ccc2c(c1)CCN(c1nc(OC3CCC3)c(F)cc1F)C2` [Compound 44, 3-(2-(6-Cyclobutoxy-3,5-difluoropyridin-2-yl)-1,2,3,4-tetrahydroisoquinolin-6-yl)propanoic Acid], which EC50 is on record?
A: 25.1 nM

Q: `O=C(O)CCc1ccc2c(c1)CCN(c1ncc(F)c(OC3CCC3)n1)C2` [Compound 8, 3-(2-(4-cyclobutoxy-5-fluoropyrimidin-2-yl)-1,2,3,4-tetrahydroisoquinolin-6-yl)propanoic acid] was tested. Which EC50 did it give?
A: 63.1 nM

Q: How did the EC50 turn out when `O=C(O)CCc1cc(F)c2c(c1)CCN(c1cc(OC(F)(F)F)ccc1F)C2` [Compound 40, 3-(8-fluoro-2-(2-fluoro-5-(trfluoromethoxy)phenyl)-1,2,3,4-tetrahydroisoquinolin-6-yl)propanoic acid] was run?
A: 31.6 nM

Q: Which EC50 does the source give for `COc1cc(Cl)cc(N2CCc3ccc(CCC(=O)O)cc3C2)c1` [Compound 31, 3-(2-(3-chloro-5-methoxyphenyl)-1,2,3,4-tetrahydroisoquinolin-7-yl)propanoic acid] here?
A: 2510 nM

Q: `CC(Cc1ccc2c(c1)CCN(c1cc(OC(F)(F)F)ccc1F)C2)C(=O)O` (stereo not shown) [Compound 26, 3-(2-(2-Fluoro-5-(trifluoromethoxy)phenyl)-1,2,3,4-tetrahydroisoquinolin-6-yl)-2-methylpropanoic Acid] was tested. Which EC50 did it give?
A: 79.4 nM

Q: Which EC50 does the source give for `O=C(O)CCc1ccc2c(c1)CCN(c1cccc(-c3ccccc3)c1)C2` [Compound 23, 3-(2-([1,1′-biphenyl]-3-yl)-1,2,3,4-tetrahydroisoquinolin-6-yl)propanoic acid] here?
A: 398 nM

Q: Which EC50 does the source give for `Cc1ccc(OC2CCC2)cc1N1CCc2cc(CCC(=O)O)ccc2C1` [Compound 14, 3-(2-(5-cyclobutoxy-2-methylphenyl)-1,2,3,4-tetrahydroisoquinolin-6-yl)propanoic acid] here?
A: 50.1 nM

Q: `O=C(O)C1CC1c1ccc2c(c1)CCN(c1cc(OC3CCC3)cc(F)c1F)C2` (stereo not shown) [Compound 36, 2-(2-(5-cyclobutoxy-2,3-difluorophenyl)-1,2,3,4-tetrahydroisoquinolin-6-yl)cyclopropane-1-carboxylic acid] was tested. Which EC50 did it give?
A: 100 nM

Q: How did the EC50 turn out when `Cc1cc(C)cc(N2CCc3ccc(CCC(=O)O)cc3C2)c1` [Compound 30, 3-(2-(3,5-dimethylphenyl)-1,2,3,4-tetrahydroisoquinolin-7-yl)propanoic Acid] was run?
A: 1580 nM

Q: With `CO[C@H]1C[C@H](Oc2ccc(F)c(N3CCc4cc(CCC(=O)O)ccc4C3)c2)C1` [Compound 2, 3-(2-(2-fluoro-5-((1r,3r)-3-methoxycyclobutoxy)phenyl)-1,2,3,4-tetrahydroisoquinolin-6-yl)propanoic acid] as the compound, how does the EC50 read?
A: 158 nM

Q: With `O=C(O)C1CC1c1ccc2c(c1)CCN(c1cc(OC3CCC3)ccc1F)CC2` (stereo not shown) [Compound 53] as the compound, how does the EC50 read?
A: 100 nM

Q: For `O=C(O)C1CC1c1ccc2c(c1)CCN(c1nc(OC3CCC3)ccc1F)C2` (stereo not shown) [Compound 37, 2-(2-(6-cyclobutoxy-3-fluoropyridin-2-yl)-1,2,3,4-tetrahydroisoquinolin-6-yl)cyclopropane-1-carboxylic acid], which EC50 is on record?
A: 39.8 nM

Q: For `O=C(O)CCc1ccc2c(c1)CCN(c1nc(OC3CCC3)ccc1F)C2` [Compound 7, 3-(2-(6-cyclobutoxy-3-fluoropyridin-2-yl)-1,2,3,4-tetrahydroisoquinolin-6-yl)propanoic acid], which EC50 is on record?
A: 15.8 nM

Q: Which EC50 does the source give for `O=C(O)CCc1ccc2c(c1)CCN(c1cc(OC3CCC3)ccc1F)CC2` [Compound 46, 3-(3-(5-cyclobutoxy-2-fluorophenyl)-2,3,4,5-tetrahydro-1H-benzo[d]azepin-7-yl)propanoic acid] here?
A: 79.4 nM

Q: How did the EC50 turn out when `O=C(O)CCc1ccc2c(c1)CCN(c1ccccc1Oc1ccccc1)C2` [Compound 4, 3-(2-(2-phenoxyphenyl)-1,2,3,4-tetrahydroisoquinolin-6-yl)propanoic acid] was run?
A: 158 nM

Q: `O=C(O)CCc1ccc2c(c1)CCCN(c1cc(OC(F)(F)F)ccc1F)C2` [Compound 54, 3-(2-(2-Fluoro-5-(trifluoromethoxy)phenyl)-2,3,4,5-tetrahydro-1H-benzo[c]azepin-7-yl)propanoic Acid] was tested. Which EC50 did it give?
A: 200 nM

Q: With `COc1ccc(Cl)cc1N1CCc2cc(CCC(=O)O)ccc2C1` [Compound 29, 3-(2-(5-chloro-2-methoxyphenyl)-1,2,3,4-tetrahydroisoquinolin-6-yl)propanoic acid] as the compound, how does the EC50 read?
A: 1000 nM

Q: Which EC50 does the source give for `O=C(O)CCc1ccc2c(c1)CCN(c1cc(OC(F)(F)F)ccc1F)CC2` [Compound 45, 3-(3-(2-fluoro-5-(trifluoromethoxy)phenyl)-2,3,4,5-tetrahydro-1H-benzo[d]azepin-7-yl)propanoic Acid] here?
A: 25.1 nM

Q: How did the EC50 turn out when `O=C(O)CCc1ccc2c(c1)CCN(c1cccc(C(F)(F)F)c1)C2` [Compound 16, 3-(2-(3-(trifluoromethyl)phenyl)-1,2,3,4-tetrahydroisoquinolin-6-yl)propanoic acid] was run?
A: 501 nM

Q: `O=C(O)CCc1ccc2c(c1)CCN(c1cc(Cl)cc(OC3CCC3)c1)C2` [Compound 43, 3-(2-(3-chloro-5-cyclobutoxyphenyl)-1,2,3,4-tetrahydroisoquinolin-6-yl)propanoic acid] was tested. Which EC50 did it give?
A: 20 nM

Q: For `COc1cc(OC(F)(F)F)cc(N2CCc3cc(CCC(=O)O)ccc3C2)c1` [Compound 25, 3-(2-(3-methoxy-5-(trifluoromethoxy)phenyl)-1,2,3,4-tetrahydroisoquinolin-6-yl)propanoic acid], which EC50 is on record?
A: 63.1 nM

Q: For `O=C(O)C1CC1c1ccc2c(c1)CCN(c1cc(OC3CCC3)ccc1F)C2` (single isomer, unassigned) [34 isomer 2], which EC50 is on record?
A: 79.4 nM

Q: Which EC50 does the source give for `O=C(O)CCc1ccc2c(c1)CCN(c1cc(Oc3ccccc3)ccc1F)C2` [Compound 9, 3-(2-(2-fluoro-5-phenoxyphenyl)-1,2,3,4-tetrahydroisoquinolin-6-yl)propanoic acid] here?
A: 20 nM

Q: For `O=C(O)CCc1ccc2c(c1)CCN(c1cccc(OC(F)(F)F)n1)C2` [Compound 22, 3-(2-(6-(trifluoromethoxy)pyridin-2-yl)-1,2,3,4-tetrahydroisoquinolin-6-yl)propanoic acid], which EC50 is on record?
A: 316 nM

Q: For `CC(C)Oc1cccc(N2CCc3cc(CCC(=O)O)ccc3C2)c1` [Compound 28, 3-(2-(3-Isopropoxyphenyl)-1,2,3,4-tetrahydroisoquinolin-6-yl)propanoic Acid], which EC50 is on record?
A: 501 nM

Q: `CC(Cc1ccc2c(c1)CCN(c1cc(OC3CCC3)ccc1F)C2)C(=O)O` (racemic) [Compound 27, 3-(2-(5-cyclobutoxy-2-fluorophenyl)-1,2,3,4-tetrahydroisoquinolin-6-yl)-2-methylpropanoic acid] was tested. Which EC50 did it give?
A: 100 nM
